Tested on: human bladder smooth muscle
Test: Relaxing effect on resting tension of isolated human bladder smooth muscle strips
Assay type: cell-based
Settings: drug added cumulatively about every 5 minutes, 0 % = 10^-5 M forskolin, Figure 1
Procedure: Measurement of the contractile force of human bladder smooth muscle strips (1) Smooth muscle preparations Human bladders were obtained from patients undergoing cystectomy and were carefully dissected free from the surrounding fat and mucosa. Preparations were prepared by cutting the bladder smooth muscle longitudinally into about 1.5 cm in length and about 3 mm in width and used. […] Conditions for measurement; The bathing solution was maintained at 37 °C and gassed with a mixture of 95 % O2 and 5 % CO2. Drug Treatment; The drug was cumulatively added about every 5 minutes. Evaluation of the drug effects; The drug-induced relaxation was evaluated. The tension before the drug treatment is indicated as 100 %, and the tension after treatment with 10^-5 M forskolin which produces maximal bladder relaxation is indicated as 0 %. According to the method described above, the bladder relaxing effects of the following drugs were measured using human bladder smooth muscle.

Row | SMILES | relaxing effects on bladder smooth muscle
1 | CC(C)(C)NCC(O)COc1cccc2[nH]c(=O)[nH]c12.Cl (racemic) [CGP-12,177A hydrochloride, (±)-4-[3-[(1,1-dimethylethyl)-amino]-2-hydroxypropoxy]-1,3-dihydro-2H-benzimidazol-2-on hydrochloride] | apparent relaxing effects
2 | CC(C)NCC(O)c1ccc(O)c(O)c1 (centres unmarked) [isoproterenol] | apparent relaxing effects

From EP0958835A1, “PREVENTIVE/REMEDY FOR FREQUENT URINATION AND URINARY INCONTINENCE” (Kissei Pharmaceutical Co., Ltd., priority 1996, dated 1998)
